Patent US20230233144A1, “Method for Determining Medication Adherence and Taggants Therefo” (The Regents of the University of Colorado, A Body Corporate, priority 2021, published 2023)
Where two headings read alike, the source gives them in different places.

Legend:
[1] = in vivo
Excerpt: Example 2: An assay for a tenofovir (a PrEP drug) anabolite, tenofovir-diphosphate in red blood cells, which may be collected in dried blood spots (DBS), is disclosed as an adherence assessment. […] This enables assessment of cumulative dosing, indicative of degrees or gradients of adherence, over the preceding 1-2 months for tenofovir-based PrEP. This is analogous to how hemoglobin A1C works for cumulative glucose exposure. […] FIG. 3 illustrates how taggant tenofovir diphosphate concentration in dried blood spots is used in clinical trials to correlate and interpret medication adherence based upon TFV-DP concentration in DBS.

[2] = Daily 5+ ATP to rats for six days, 5+ ATP/1+ ATP ratio in dried blood spots by mass spectrometry; settings: rat, red blood cells in dried blood spots, 100 mcg, in vivo ATP pool
Excerpt: Once each day, blood spot samples were taken from each rat and dried.
The in vivo ATP pool is large, the half-life of ATP is relatively long, 3 days in rats, corresponding to about 10 days in humans.

[3] = ATP half-life corresponding value in humans; settings: human, in vivo, corresponding to the rat value
Excerpt: The in vivo ATP pool is large, the half-life of ATP is relatively long, 3 days in rats, corresponding to about 10 days in humans. […] Given the long half-life of ATP, the measurement for gradients of adherence is analogous to hemoglobin A1C as a measure of gradients of glucose exposure over the preceding months.

| Compound | half-life ([1]; human) | accumulation from a single dose to steady-state [1] | time of build up in DBS until steady-state plateau [1] | half-life [2] | half-life [3] |
| --- | --- | --- | --- | --- | --- |
| CC(Cn1cnc2c(N)ncnc21)OCP(=O)(O)OP(=O)(O)OP(=O)(O)O (stereo in doubt) [TFV-DP, tenofovir-diphosphate] | 408 h | 25 fold | approximately 60 days | – | – |
| Nc1ncnc2c1ncn2[C@@H]1O[C@H](COP(=O)(O)OP(=O)(O)OP(=O)(O)O)[C@@H](O)[C@H]1O [ATP, adenosine triphosphate] | – | – | – | 72 h | ~240 h |
